Values after ≈ are worked out from the molar mass of the structure shown. Blank lines part the entries; values can stand above or below the molecule they belong to.
Experiments:
[1] = in vitro; details: human, Caco-2
[2] = Oral bioavailability in Beagle dog at 0.5 mg/kg administered as solution in 40% PEG400 in saline; type: ADME, organism-based, Canis lupus familiaris; details: in vivo
[3] = Oral bioavailability in Han Wistar rat at 10 mg/kg administered as solution in 40% PEG400 in saline; type: ADME, organism-based; details: in vivo
[4] = Solubility of the compound; type: physicochemical
[5] = Oral bioavailability in Beagle dog at 0.5 mg/kg administered as suspension in 0.5% methylcellulose; type: ADME, organism-based, Canis lupus familiaris; details: in vivo
[6] = Permeability from basolateral to apical side of MDCK cells; type: ADME, cell-based, Canis lupus familiaris; details: dog, read-out: permeability
[7] = Oral bioavailability in Han Wistar rat at 10 mg/kg administered as suspension in 0.5% methylcellulose; type: ADME, organism-based; details: in vivo
[8] = Permeability from apical to basolateral side of MDCK cells; type: ADME, cell-based, Canis lupus familiaris; details: dog, read-out: permeability
[9] = Volume of distribution at steady state in Beagle dog at 0.5 mg/kg, iv; type: ADME, organism-based, Canis lupus familiaris; design: dose 0.5 mg/kg, route intravenous; details: in vivo, read-out: Vdss
[10] = Volume of distribution at steady state in Han Wistar rat at […], iv; type: ADME, organism-based; design: dose 2.5 mg/kg, route intravenous; details: in vivo, read-out: Vdss
[11] = Toxicity in human A2058 cells xenografted po dosed nu/nu athymic mouse; type: organism-based; details: in vivo

Structure (SMILES): Nc1nc2c(c(-c3c(Cl)cc(Cl)cc3OCCn3cccn3)n1)CN(C(=O)NC1CCC1)C2
- Papp A→B [1]: 4.7 ×10⁻⁶ cm/s

Structure (SMILES): Nc1nc2c(c(-c3c(Cl)cc(Cl)cc3OCCn3cccn3)n1)CN(C(=O)NC13CC(C1)C3)C2
- Papp A→B [1]: 5 ×10⁻⁶ cm/s

Structure (SMILES): Nc1nc2c(c(-c3c(Cl)cc(Cl)cc3OCCn3cccn3)n1)CN(C(=O)NCC(F)F)C2
- Papp A→B [1]: 1.2 ×10⁻⁶ cm/s

Structure (SMILES): Nc1nc2c(c(-c3c(Cl)cc(Cl)cc3OCCn3cccn3)n1)CN(C(=O)NCC(F)(F)F)C2
- Papp A→B [1]: 0.96 ×10⁻⁶ cm/s

Structure (SMILES): Cc1cc(Cl)cc(OCCn2cc(F)cn2)c1-c1nc(N)nc2c1CN(C(=O)NCC(C)(F)F)C2
- bioavailability [2]: 63%
- bioavailability [3]: 19%
- solubility [4]: 200 µM (≈ 102 µg/mL)
- bioavailability [5]: 58%
- Papp B→A [6]: 11 ×10⁻⁶ cm/s
- bioavailability [7]: 15%
- Papp A→B [8]: 2.4 ×10⁻⁶ cm/s
- Vd [9]: 8 L/kg
- Vd [10]: 9.6 L/kg

Structure (SMILES): CO[C@H]1/C=C\C=C(/C)C(=O)NC2=CC(=O)C(NCCN(C)C)=C(C[C@@H](C)C[C@H](OC)[C@H](O)[C@@H](C)/C=C(\C)[C@@H]1OC(N)=O)C2=O [ALVESPIMYCIN]
- MTD [11]: 10 mg/kg

Second part, the molecule after the results:

- Papp A→B [1]: 0.5 ×10⁻⁶ cm/s
Structure (SMILES): Nc1nc2c(c(-c3c(Cl)cc(Cl)cc3OCCn3cccn3)n1)CN(C(=O)NC1CC1)C2

- Papp A→B [1]: 1.5 ×10⁻⁶ cm/s
Structure (SMILES): Nc1nc2c(c(-c3c(Cl)cc(Cl)cc3OCCn3cccn3)n1)CN(C(=O)NC1CC(F)(F)C1)C2
